Data: patent publication US20090018166A1, “New Pyridine Analogues X 161” (ASTRAZENECA AB, priority 2007, published 2009)

molecular target: T1, P2Y12 receptor (Homo sapiens, UniProt Q9H244); test: Functional inhibition of 2-Me-S-ADP induced P2Y12 signalling (35S-GTPγS binding, membranes from P2Y12 transfected CHO-cells); format: biochemical; conditions: 35S-GTPγS, EC80 of 2-methyl-thio-adenosine diphosphate, P2Y12 CHO membranes; value given in each example; read-out: GTPγS(IC50 μM)
T1 construct: expressed in transfected cells; host or cells: CHO cells (membranes)
Summary of the method: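 Membranes (5 μg) from P2Y12-transfected CHO cells in pH 7.4 HEPES buffer with 10 μM GDP and saponin were stimulated with an EC80 of 2-methyl-thio-ADP plus compound and ^35S-GTPγS for 45 min at 30° C. Filter-retained ^35S-GTPγS was counted, normalised between agonist and no-agonist activity, and IC50 taken from a four-parameter fit.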

T1 sequence (Q9H244 whole entry): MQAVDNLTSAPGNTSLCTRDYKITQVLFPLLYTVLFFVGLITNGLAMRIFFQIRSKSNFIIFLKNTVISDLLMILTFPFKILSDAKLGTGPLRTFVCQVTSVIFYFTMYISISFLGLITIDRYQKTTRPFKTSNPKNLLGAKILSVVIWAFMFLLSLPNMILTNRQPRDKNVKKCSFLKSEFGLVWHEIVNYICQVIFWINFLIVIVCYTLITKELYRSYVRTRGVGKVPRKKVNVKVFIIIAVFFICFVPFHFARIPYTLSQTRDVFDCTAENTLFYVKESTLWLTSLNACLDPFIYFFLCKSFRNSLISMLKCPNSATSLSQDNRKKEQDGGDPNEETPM

Row | IC50 [µM] | SMILES
1 | 0.268 | CCCCC(=O)c1cc(Cl)c(N2CCC(C(=O)NS(=O)(=O)C(C)c3ccccc3)CC2)nc1CN1CCCC1=O (stereo not shown) [Example 60, 1-{3-chloro-6-[(2-oxopyrrolidin-1-yl)methyl]-5-pentanoylpyridin-2-yl}-N-[(1-phenylethyl)sulfonyl]piperidine-4-carboxamide]
2 | 0.033 | CCCCC(=O)c1cc(C#N)c(N2CCC(C(=O)NS(=O)(=O)C(C)c3ccccc3)CC2)nc1CN1CCCC1=O (stereo not shown) [Example 61, 1-{3-cyano-6-[(2-oxopyrrolidin-1-yl)methyl]-5-pentanoylpyridin-2-yl}-N-[(1-phenylethyl)sulfonyl]piperidine-4-carboxamide]
3 | 0.03 | CCc1cnc(-c2cc(C#N)c(N3CCC(C(=O)NS(=O)(=O)N(C)c4ccc(F)cc4)CC3)nc2CN2CCCC2=O)o1 [Example 62, 1-{3-cyano-5-(5-ethyl-1,3-oxazol-2-yl)-6-[(2-oxopyrrolidin-1-yl)methyl]pyridin-2-yl}-N-{[(4-fluorophenyl)(methyl)amino]sulfonyl}piperidine-4-carboxamide]
4 | 0.021 | CCc1cnc(-c2cc(C#N)c(N3CCC(C(=O)NS(=O)(=O)Cc4ccccc4)CC3)nc2CN2CCCC2=O)o1 [Example 63, N-(benzylsulfonyl)-1-{3-cyano-5-(5-ethyl-1,3-oxazol-2-yl)-6-[(2-oxopyrrolidin-1-yl)methyl]pyridin-2-yl}piperidine-4-carboxamide]
5 | 0.45 | CCc1cnc(-c2cc(Cl)c(N3CCC(C(=O)NS(=O)(=O)N(C)c4ccc(F)cc4)CC3)nc2CN2CCCC2=O)o1 [Example 64, 1-{3-chloro-5-(5-ethyl-1,3-oxazol-2-yl)-6-[(2-oxopyrrolidin-1-yl)methyl]pyridin-2-yl}-N-{[(4-fluorophenyl)(methyl)amino]sulfonyl}piperidine-4-carboxamide]
6 | 0.17 | CCc1cnc(-c2cc(Cl)c(N3CCC(C(=O)NS(=O)(=O)Cc4ccccc4)CC3)nc2CN2CCCC2=O)o1 [Example 65, N-(benzylsulfonyl)-1-{3-chloro-5-(5-ethyl-1,3-oxazol-2-yl)-6-[(2-oxopyrrolidin-1-yl)methyl]pyridin-2-yl}piperidine-4-carboxamide]
7 | 0.252 | CCCC(=O)c1cc(Cl)c(N2CCC(C(=O)NS(=O)(=O)Cc3ccccc3)CC2)nc1CN1CCCCC1=O [Example 66, N-(benzylsulfonyl)-1-{5-butyryl-3-chloro-6-[(2-oxopiperidin-1-yl)methyl]pyridin-2-yl}piperidine-4-carboxamide]
8 | 0.445 | CCCC(=O)c1cc(Cl)c(N2CCC(C(=O)NS(=O)(=O)N(C)c3ccc(F)cc3)CC2)nc1CN1CCCCC1=O [Example 67, 1-{5-Butyryl-3-chloro-6-[(2-oxopiperidin-1-yl)methyl]pyridin-2-yl}-N-{[(4-fluorophenyl)(methyl)amino]sulfonyl}piperidine-4-carboxamide]
9 | 3.67 | CCCC(=O)c1cc(Cl)c(N2CCC(C(=O)N(C)S(=O)(=O)N(C)c3ccc(F)cc3)CC2)nc1CN1CCCC1=O [Example 69, 1-{5-Butyryl-3-chloro-6-[(2-oxopyrrolidin-1-yl)methyl]pyridin-2-yl}-N-{[(4-fluorophenyl)(methyl)amino]sulfonyl}-N-methylpiperidine-4-carboxamide]
10 | 0.903 | CCCC(=O)c1cc(C#N)c(N2CCC(C(=O)N(C)S(=O)(=O)CC3CCCC3)CC2)nc1CN1CCCC1=O [Example 70, 1-{5-Butyryl-3-cyano-6-[(2-oxopyrrolidin-1-yl)methyl]pyridin-2-yl}-N-[(cyclopentylmethyl)sulfonyl]-N-methylpiperidine-4-carboxamide]
